Data set [1] has as its target T1, CYP6P4 (Anopheles arabiensis, UniProt A0A0M4KNY0).
T1 sequence (A0A0M4KNY0 1-506): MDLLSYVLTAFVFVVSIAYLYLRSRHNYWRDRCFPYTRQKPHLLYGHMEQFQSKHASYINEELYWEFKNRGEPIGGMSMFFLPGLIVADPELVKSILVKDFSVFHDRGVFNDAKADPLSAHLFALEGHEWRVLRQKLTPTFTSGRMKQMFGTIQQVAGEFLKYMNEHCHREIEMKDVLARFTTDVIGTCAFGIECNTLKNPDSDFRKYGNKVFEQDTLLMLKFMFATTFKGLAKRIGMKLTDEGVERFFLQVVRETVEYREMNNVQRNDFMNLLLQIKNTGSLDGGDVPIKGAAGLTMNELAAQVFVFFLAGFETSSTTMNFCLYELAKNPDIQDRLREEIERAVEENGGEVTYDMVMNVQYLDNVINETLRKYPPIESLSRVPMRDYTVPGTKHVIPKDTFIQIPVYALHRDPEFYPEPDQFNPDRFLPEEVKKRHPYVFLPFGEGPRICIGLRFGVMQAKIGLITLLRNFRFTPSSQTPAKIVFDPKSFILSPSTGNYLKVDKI
T1 sequence (Q86QH5 1-679 partner): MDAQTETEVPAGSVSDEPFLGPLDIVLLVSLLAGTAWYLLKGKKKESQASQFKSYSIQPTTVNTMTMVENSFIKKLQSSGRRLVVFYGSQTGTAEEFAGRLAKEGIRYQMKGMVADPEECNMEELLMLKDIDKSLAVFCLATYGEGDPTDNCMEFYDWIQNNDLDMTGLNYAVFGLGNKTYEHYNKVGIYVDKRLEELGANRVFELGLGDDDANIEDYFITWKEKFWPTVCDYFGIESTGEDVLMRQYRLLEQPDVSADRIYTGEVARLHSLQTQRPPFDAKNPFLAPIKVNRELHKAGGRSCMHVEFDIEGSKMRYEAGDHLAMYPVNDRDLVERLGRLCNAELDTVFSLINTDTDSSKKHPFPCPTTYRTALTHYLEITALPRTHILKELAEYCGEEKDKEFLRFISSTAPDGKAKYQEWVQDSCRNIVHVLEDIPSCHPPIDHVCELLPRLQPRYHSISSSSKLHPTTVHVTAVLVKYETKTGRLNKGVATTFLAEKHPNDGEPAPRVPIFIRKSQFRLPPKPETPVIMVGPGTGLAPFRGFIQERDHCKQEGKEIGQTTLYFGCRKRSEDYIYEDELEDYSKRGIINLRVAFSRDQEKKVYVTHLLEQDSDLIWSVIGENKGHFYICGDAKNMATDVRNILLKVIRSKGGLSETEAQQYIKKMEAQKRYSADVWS
In words: In vitro metabolism assays with insecticides (percentage depletion, HPLC). The data set is classed as in vitro ADME. Particulars: for metabolised at 1 h, 20 µM: Anopheles arabiensis, recombinant cyp6p4. On the procedure:
0.2 M Tris–HCl and NADPH-regeneration components were added to the bottom of 1.5 ml tube chilled on ice. Membranes expressing recombinant CYP6P4 and AgCPR (and reconstituted with cytochrome b5) were added to the side of the tube and pre-incubated for 5 min at 30 °C, with shaking at 1200 rpm. […] Reactions were quenched with 0.1 ml ice-cold methanol and incubated for 5 more minutes to precipitate protein. Tubes were then centrifuged at 16,000 rpm and 4 °C for 15 min, and 150 μl of supernatant transferred into HPLC vials for analysis. All reactions were carried out in triplicate with experimental samples (+NADPH) and negative controls (-NADPH). […] For the other insecticides, mobile phases were 65:35 (bendiocarb) and 60:40 v/v (propoxur and malathion) acetonitrile to water, respectively with column temperature of 40 °C for bendiocarb and propoxur. Bendiocarb and propoxur were detected at 205 nm and 270 nm respectively, whilst malathion was detected at 230 nm. Enzyme activity was calculated as percentage depletion (the difference in the amount of insecticide(s) remaining in the +NADPH tubes compared with the –NADPH) and a t-test used for statistical analysis.

Data set [2] relates to An. arabiensis populations from Ndjamena. More on the design: method as in Witzig et al., 2013. To be noted: Chad, 2009, ref Witzig et al., 2013; cited from earlier work.
The target of data set [3] is T1, CYP6P4. In words: Fluorogenic probes assay (O-dealkylation, DEF kinetics). Particulars: 0-2 μM diethoxyfluorescein, 2 pmol enzyme, 10 min. The data set is classed as biochemical. The method, then: To find out whether there are differences in the degree of binding of recombinant CYP6P4 to different insecticides, membrane was also tested for O-dealkylation towards seven (7) fluorogenic probes: resorufin-based 7-ethoxyresurofin (7-ER), resurofin methyl ether (RME), resorufin-benzylether (RBE) and resorufin-pentylether (RPE); coumarin-based probes: 7-ethoxy-4-trifluoromethylcoumarin (7-EFC) and 7-methoxy-4-trifluoromethylcoumarin (MFC); and diethoxyfluorescein (DEF). […] Membranes were activated for 5 min at 37 °C in fluorescence spectrophotometer FLOUstar Omega (BMG LABTECH, Ortenberg, Germany) before 25 μl NADPH regeneration buffer (1 mM glucose-6-phosphate (G6P), 0.25 mM MgCl2, 0.1 mM NADP and 1 U/ml glucose-6-phosphate dehydrogenase (G6PDH) prepared in KPi (pH 7.4) was added. All reactions were conducted in three replicates with negative control (–NADPH) devoid of the regeneration buffer. Rate of fluorescent product formation for 7-ER, RBE and RME (ʎexc = 544 nm, ʎemi = 590 nm), 7-EFC and MFC (ʎexc = 410 nm, ʎemi = 535 nm) and DEF (ʎexc = 485 nm, ʎemi = 530 nm) was determined by linear regression of measurement between 2 and 10 min after start of the reaction.
For kinetics, 0–2 μM diethoxyfluorescein was assayed with 2 pmol of recombinant enzyme in a total volume of 250 μl. The protocol was as outlined above, with varying substrate concentration. […]

Data set [4] has as its target T1, CYP6P4. In words: Inhibition assay of CYP6P4 metabolism of diethoxyfluorescein by insecticides. It is filed as biochemical. Particulars: 0.11 μM DEF substrate, 2 pmol CYP6P4, inhibitor 25-0.011 μM, 30 °C. The method, then:
To assess differences in the degree of binding of the recombinant CYP6P4 to insecticides from different classes, inhibition assay was conducted with DEF and nine insecticides (inhibitors). […] 25 μl of pre-warmed regeneration buffer (7.8 mg glucose-6-phosphate, 0.25 mM MgCl2, 1.7 mg NADP, 6 U/ml glucose-6-phosphate dehydrogenase and 2% w/v NaHCO3) was incorporated into the wells. Fluorescence was monitored for 21 cycles at interval of 1 min with shaking at every step, at 30 °C. Results were analysed with GraphPad Prism software and inhibition at each inhibitor concentration and incubation time calculated as residual control activity towards DEF.

Substrate in data set [5]: CC1(C)C(C=C(Cl)Cl)C1C(=O)OCc1cccc(Oc2ccccc2)c1
The data set can be described thus: purified protein, by the assay type. It is filed as biochemical, Anopheles arabiensis. Particulars: other: permethrin 3-30 μM, 30 min, 22.5 pmol recombinant protein. The method, then: Reactions were performed in triplicates both for + NADPH (experimental tubes) and –NADPH (negative control tubes). Km and Vmax were established from the plot of substrate concentrations against the initial velocities and fitting of the data to the Michaelis–Menten module using the least squares non-linear regression, as implemented in the GraphPad Prism 6.03 Software (GraphPad Inc., La Jolla, CA, USA).

Where [6] appears, read: 20 μM insecticide, 1 h incubation, 30 °C, +NADPH vs -NADPH.

Read-outs that look alike come from different tables or passages of the source.

For `Cc1c(COC(=O)[C@@H]2[C@H](/C=C(\Cl)C(F)(F)F)C2(C)C)cccc1-c1ccccc1` (racemic) [bifenthrin], the Percentage depletion at CYP6P4 [1] (setting [6]) worked out at 49.2%.
On to `CC1(C)[C@H](C(=O)O[C@H](C#N)c2cccc(Oc3ccccc3)c2)[C@@H]1/C=C(\Cl)C(F)(F)F` (racemic) [λ-cyhalothrin], for which the metabolised at 1 h, 20 µM at CYP6P4 [1] (setting [6]) was determined as 57.8%.
Consider `Clc1ccc(C(c2ccc(Cl)cc2)C(Cl)(Cl)Cl)cc1` [DDT], for which, on CYP6P4 [1] (20 μM DDT, 1 h, following addition of sodium cholate, p = 0.08, neither dicofol nor DDE detected), the Percentage depletion result was “up to 20%”. For the same molecule, in data set [2], the resistance/susceptibility status result was “resistant”.
Usually Km stands for the substrate concentration at which the rate is half of its maximum. Turning to `CCOc1ccc2c(c1)Oc1cc(OCC)ccc1C21OC(=O)c2ccccc21` [DEF, diethoxyfluorescein], on CYP6P4 [3], the “Kcat (maximal catalytic activity)” value was 0.9775 s⁻¹ and the Michaelis constant (Km) worked out at 0.11 µM.
In general, IC50 refers to the concentration at which inhibition is half-maximal. Take `CNC(=O)Oc1cccc2c1OC(C)(C)O2` [bendiocarb]: the Percentage depletion entry on CYP6P4 [1] (setting [6]) is reported as “No activities”. For the same molecule, the resistance/susceptibility status entry in data set [2] is “susceptible”. Moreover, the 50% inhibitory concentration (IC50) result against CYP6P4 [4] is “high IC50 values”.
For the molecule `CC1(C)[C@H](C(=O)O[C@H](C#N)c2cccc(Oc3ccccc3)c2)[C@@H]1C=C(Br)Br` [deltamethrin], the metabolised at 1 h, 20 µM on CYP6P4 [1] (setting [6]) is below 2%. In addition, the mortality rate in data set [2] is given as 90%. For the same molecule, the IC50 on CYP6P4 [4] (read-out: IC50) is 2520 nM.
Turning to `ClC1=C(Cl)[C@]2(Cl)[C@@H]3[C@@H]4C[C@@H]([C@H]5O[C@@H]45)[C@@H]3[C@@]1(Cl)C2(Cl)Cl` [dieldrin], the resistance/susceptibility status result in data set [2] is on record as “susceptible”.
`CCOc1ccc(C(C)(C)COCc2cccc(Oc3ccccc3)c2)cc1` [etofenprox]: on CYP6P4 [1] (setting [6]), the metabolised at 1 h, 20 µM was determined as 24.9%.
For the molecule `CCOC(=O)CC(SP(=S)(OC)OC)C(=O)OCC` (centres unmarked) [malathion], the Percentage depletion result at CYP6P4 [1] (setting [6]) is given as “No activities”. For the same molecule, the resistance/susceptibility status result in data set [2] is on record as “susceptible”. Further, the IC50 result against CYP6P4 [4] was “high IC50 values”.
As for `CC1(C)C(C=C(Cl)Cl)C1C(=O)OCc1cccc(Oc2ccccc2)c1` (centres unmarked) [permethrin], the metabolised at 1 h, 20 µM on CYP6P4 [1] (setting [6]) came out at 70.5%. The IC50 on CYP6P4 [4] (read-out: IC50) was determined as 970 nM.
`CNC(=O)Oc1ccccc1OC(C)C` [propoxur]: on CYP6P4 [1] (setting [6]), the Percentage depletion result was “No activities”.

B1: recombinant CYP6P4 (Anopheles arabiensis) (protein)
chain: MDLLSYVLTAFVFVVSIAYLYLRSRHNYWRDRCFPYTRQKPHLLYGHMEQFQSKHASYINEELYWEFKNRGEPIGGMSMFFLPGLIVADPELVKSILVKDFSVFHDRGVFNDAKADPLSAHLFALEGHEWRVLRQKLTPTFTSGRMKQMFGTIQQVAGEFLKYMNEHCHREIEMKDVLARFTTDVIGTCAFGIECNTLKNPDSDFRKYGNKVFEQDTLLMLKFMFATTFKGLAKRIGMKLTDEGVERFFLQVVRETVEYREMNNVQRNDFMNLLLQIKNTGSLDGGDVPIKGAAGLTMNELAAQVFVFFLAGFETSSTTMNFCLYELAKNPDIQDRLREEIERAVEENGGEVTYDMVMNVQYLDNVINETLRKYPPIESLSRVPMRDYTVPGTKHVIPKDTFIQIPVYALHRDPEFYPEPDQFNPDRFLPEEVKKRHPYVFLPFGEGPRICIGLRFGVMQAKIGLITLLRNFRFTPSSQTPAKIVFDPKSFILSPSTGNYLKVDKI
One may read the kcat as the maximal rate divided by the concentration of active sites. On to B1, for which, in data set [5], the Michaelis-Menten constant (Km) came to 8.07 µM, the kcat was 0.054 s⁻¹ and the kcat/Km was found to be 0.4008 min^−1μM^−1.

The record behind these values is PMC4717123, “The cytochrome P450 CYP6P4 is responsible for the high pyrethroid resistance in knockdown resistance-free Anopheles arabiensis” (Insect Biochemistry and Molecular Biology, 2016).
